Assay results as given in US11318141B2, “Methods and compositions related to STK1-targeted small molecules as antibiotic resistance breakers” (Ohio State Innovation Foundation, priority 2017, dated 2022).

Tested on: S. aureus MW2-WT
Assay: microbe, parasite or virus in culture
Format: cell-based, Staphylococcus aureus
Conditions: E-test, 50 μM Inh2-B1

CC[C@H]1OC(=O)[C@H](C)[C@@H](O[C@H]2C[C@@](C)(OC)[C@@H](O)[C@H](C)O2)[C@H](C)[C@@H](O[C@@H]2O[C@H](C)C[C@H](N(C)C)[C@H]2O)[C@](C)(O)C[C@@H](C)C(=O)[C@H](C)[C@@H](O)[C@]1(C)O [Erythromycin]
MIC / susceptibility pattern for MW2 in the presence vs absence of Inh2-B1: remained unaltered

C[C@@H](O)[C@H]1C(=O)N2C(C(=O)O)=C(S[C@@H]3CN[C@H](C(=O)N(C)C)C3)[C@H](C)[C@H]12 [Meropenem]
MIC / susceptibility pattern for MW2 in the presence vs absence of Inh2-B1: remained unaltered
